Measured values taken from the supplement of paper PMC10307832.

How the values were obtained:
Test in all cases: relative viability (nuclei count vs DMSO), 5 days (fraction); higher = more cells survive
Ispinesib + Vorinostat = compound: Cc1ccc(C(=O)N(CCCN)[C@@H](c2nc3cc(Cl)ccc3c(=O)n2Cc2ccccc2)C(C)C)cc1 [Ispinesib] + O=C(CCCCCCC(=O)Nc1ccccc1)NO [Vorinostat] (partner 1 µM)
Method in brief: (§1)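 Nuclei were stained with Hoechst during a one-step fixation (final 0.05% Triton X-100, 1% formaldehyde, 1 ug/ml Hoechst) carried out 5 days after dosing, then counted on 4× images. The cells, lung cancer lines in 1536-well plates, had been dosed by pin tool the day after seeding with one drug alone or a fixed anchor-drug dose plus five library-drug doses (not always all listed) in √10 steps. Relative viability is the nuclei count in treated wells divided by that in vehicle wells, and each value is the median of duplicate plates.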

Linsitinib + Navitoclax = compound: C[C@]1(O)C[C@@H](c2nc(-c3ccc4ccc(-c5ccccc5)nc4c3)c3c(N)nccn32)C1 [Linsitinib] + CC1(C)CCC(c2ccc(Cl)cc2)=C(CN2CCN(c3ccc(C(=O)NS(=O)(=O)c4ccc(N[C@H](CCN5CCOCC5)CSc5ccccc5)c(S(=O)(=O)C(F)(F)F)c4)cc3)CC2)C1 [Navitoclax] (partner 0.5 µM)
Method in brief: as §1

Ispinesib + Palbociclib = compound: Cc1ccc(C(=O)N(CCCN)[C@@H](c2nc3cc(Cl)ccc3c(=O)n2Cc2ccccc2)C(C)C)cc1 [Ispinesib] + CC(=O)c1c(C)c2cnc(Nc3ccc(N4CCNCC4)cn3)nc2n(C2CCCC2)c1=O [Palbociclib] (partner 0.5 µM)
Method in brief: as §1

Ispinesib + AZD7762 = compound: Cc1ccc(C(=O)N(CCCN)[C@@H](c2nc3cc(Cl)ccc3c(=O)n2Cc2ccccc2)C(C)C)cc1 [Ispinesib] + NC(=O)Nc1cc(-c2cccc(F)c2)sc1C(=O)N[C@H]1CCCNC1 [AZD7762] (partner 0.2 µM)
Method in brief: as §1

| Cell Line | relative viability (Ispinesib + Vorinostat; first compound 0.001 µM) | relative viability (Ispinesib + Vorinostat; first compound 0.003162 µM) | relative viability (Ispinesib + Vorinostat; first compound 0.01 µM) | relative viability (Ispinesib + Vorinostat; first compound 0.03162 µM) | relative viability (Ispinesib + Vorinostat; first compound 0.1 µM) | relative viability (Linsitinib + Navitoclax; first compound 0.01 µM) | relative viability (Linsitinib + Navitoclax; first compound 0.03162 µM) | relative viability (Linsitinib + Navitoclax; first compound 0.1 µM) | relative viability (Linsitinib + Navitoclax; first compound 0.3162 µM) | relative viability (Linsitinib + Navitoclax; first compound 1 µM) | relative viability (Ispinesib + Palbociclib; first compound 0.001 µM) | relative viability (Ispinesib + Palbociclib; first compound 0.003162 µM) | relative viability (Ispinesib + Palbociclib; first compound 0.01 µM) | relative viability (Ispinesib + Palbociclib; first compound 0.03162 µM) | relative viability (Ispinesib + Palbociclib; first compound 0.1 µM) | relative viability (Ispinesib + AZD7762; first compound 0.001 µM) | relative viability (Ispinesib + AZD7762; first compound 0.003162 µM) | relative viability (Ispinesib + AZD7762; first compound 0.01 µM) | relative viability (Ispinesib + AZD7762; first compound 0.03162 µM) | relative viability (Ispinesib + AZD7762; first compound 0.1 µM) |
| --- | --- | --- | --- | --- | --- | --- | --- | --- | --- | --- | --- | --- | --- | --- | --- | --- | --- | --- | --- | --- |
| NCI-H1651 | 0.529 | 0.605 | 0.676 | 0.512 | 0.548 | 0.978 | 1.1 | 0.925 | 0.958 | 0.981 | 0.526 | 0.57 | 0.61 | 0.518 | 0.576 | 0.531 | 0.561 | 0.524 | 0.441 | 0.408 |
| A549 | – | – | – | – | – | 1.21 | 1.15 | 1.1 | 1.01 | 0.895 | – | – | – | – | – | – | – | – | – | – |
| HCC-366 | 0.353 | 0.512 | 0.351 | 0.216 | 0.0545 | 1.04 | 0.782 | 1.12 | 0.921 | 0.996 | 0.289 | 0.448 | 0.497 | 0.5 | 0.0937 | 0.267 | 0.29 | 0.204 | 0.346 | 0.0475 |
| NCI-H2342 | 0.664 | 0.724 | 0.797 | 0.75 | 0.554 | – | – | – | – | – | 0.571 | 0.539 | 0.556 | 0.541 | 0.522 | 0.609 | 0.432 | 0.528 | 0.411 | 0.373 |
| NCI-H1703 | – | – | – | – | – | 0.894 | – | 1.43 | 0.924 | 0.932 | – | – | – | – | – | 0.16 | 0.121 | 0.134 | 0.0817 | 0.0822 |
| IA-LM | 0.889 | 0.863 | 1.01 | 1.23 | 0.369 | 0.882 | 0.785 | 0.775 | 0.6 | 0.531 | – | – | – | – | – | – | – | – | – | – |
| NCI-H522 | 0.824 | 0.897 | 0.803 | 0.592 | 0.351 | – | – | – | – | – | 1 | 0.965 | 1.01 | 0.903 | 1.02 | 0.782 | 1.01 | 0.913 | 0.845 | 0.316 |
| SW 900 | 0.523 | 0.606 | 0.478 | 0.449 | 0.294 | – | – | – | – | – | 0.566 | 0.638 | 0.609 | 0.624 | 0.321 | 0.635 | 0.492 | 0.648 | 0.565 | 0.259 |
| SK-LU-1 | 0.709 | 0.763 | 0.911 | 0.615 | 0.506 | 0.903 | 0.777 | 0.793 | – | 0.774 | 0.323 | 0.412 | 0.379 | 0.312 | 0.325 | – | – | – | – | – |
| NCI-H358 | 0.977 | 0.752 | 0.744 | 0.703 | 0.196 | – | – | – | – | – | 0.125 | 0.13 | 0.143 | 0.106 | 0.0965 | 0.654 | 0.462 | 0.514 | 0.433 | 0.253 |
| LCLC-103H | 0.827 | 0.86 | 0.845 | 0.515 | 0.352 | – | – | – | – | – | 0.447 | 0.545 | 0.476 | 0.441 | 0.465 | 0.849 | 0.836 | 0.887 | 0.484 | 0.434 |
| NCI-H1648 | 0.594 | 0.682 | 0.422 | 0.634 | 0.428 | – | – | – | – | – | 0.285 | 0.297 | 0.248 | 0.291 | 0.256 | 0.653 | 0.774 | 0.682 | 0.616 | 0.273 |
| SW 1573 | 0.6 | 0.678 | 0.646 | 0.197 | 0.148 | 0.921 | 0.925 | 1 | 0.81 | 0.701 | 0.385 | 0.404 | 0.32 | 0.18 | 0.218 | – | – | – | – | – |
| NCI-H2009 | 0.859 | 0.732 | 0.746 | 0.72 | 0.213 | 1.15 | 1.24 | 1.22 | 1.01 | 1.2 | 0.234 | 0.153 | 0.222 | 0.113 | 0.169 | – | – | – | – | – |
| Calu-6 | – | – | – | – | – | 0.826 | 0.688 | 0.843 | 0.629 | 0.572 | – | – | – | – | – | – | – | – | – | – |
| SK-MES-1 | 1.31 | 1.19 | 1.08 | 0.233 | 0.221 | 1.26 | 1.31 | 1.33 | 0.979 | 1.16 | 0.277 | 0.345 | 0.319 | 0.154 | 0.224 | – | – | – | – | – |
| NCI-H1299 | – | – | – | – | – | 1.07 | 1.03 | 1.03 | 0.916 | 1.04 | – | – | – | – | – | – | – | – | – | – |
| NCI-H2228 | 0.742 | 0.786 | 0.722 | 0.341 | 0.242 | 0.81 | 1.09 | 0.941 | 0.787 | 0.791 | 1 | 1.05 | 1.08 | 0.544 | 0.386 | – | – | – | – | – |
| EBC-1 | – | – | – | – | – | 0.424 | 0.411 | 0.393 | 0.352 | 0.251 | – | – | – | – | – | – | – | – | – | – |
| COR-L23 | 0.422 | 0.448 | 0.342 | 0.14 | 0.175 | 0.915 | 1.01 | 1.11 | 0.931 | 0.897 | 0.261 | 0.267 | 0.217 | 0.148 | 0.171 | – | – | – | – | – |
| NCI-H520 | 0.776 | 0.71 | 0.662 | 0.268 | 0.234 | 1.15 | 0.685 | 1.1 | – | 0.893 | 0.186 | 0.223 | 0.221 | 0.21 | 0.167 | – | – | – | – | – |
| NCI-H650 | 0.508 | 0.459 | 0.475 | 0.365 | 0.199 | – | – | – | – | – | 0.301 | 0.309 | 0.361 | 0.324 | 0.335 | 1.15 | 1.21 | 1.09 | 0.634 | 0.456 |
| COR-L 105 | 0.933 | 0.51 | 1.04 | 0.49 | 0.522 | 0.826 | 0.759 | 0.856 | 0.604 | 0.709 | 0.439 | 0.39 | 0.369 | 0.362 | 0.305 | – | – | – | – | – |
| NCI-H2023 | 0.646 | 0.563 | 0.43 | 0.237 | 0.162 | 1.02 | 0.628 | 1.07 | 0.839 | 0.87 | 0.462 | 0.392 | 0.383 | 0.145 | 0.138 | – | – | – | – | – |
